Entries after “also recorded” stand apart in the source; their conditions may differ.
Key:
[1] = Pharmacokinetics of meropenem in cecal contents by LC-MS; type: in vivo, C57BL/6 mice; settings: 10 mg subcutaneous injection; 4, 8, 24, 48 and 96 hours
Protocol: C57BL/6 mice were treated with 10 mg of meropenem by subcutaneously injection. Cecal contents were collected prior to, 4, 8, 24, 48, and 96 hours after meropenem injection. To determine the relative abundance of meropenem in mouse cecum samples, extracts were prepared and analyzed with a Thermo Scientific TSQ Quantiva triple quadruple mass spectrometer coupled with a Dionex UltiMate 3000 HPLC system. Approximately 600 mgs of mouse cecal contents were homogenized with a Precellys Tissue Homogenizer. Metabolites were extracted using 100% acetonitrile. The tissue lysates were vortexed, centrifuged at 17,000 g for 5 min 5 at 4° C., and organic layers were transferred to clean tubes, followed by evaporation to dryness under nitrogen. Dried extracts were reconstituted in 50/50 (v/v) water/Acetonitrile, and 5 μL was injected for analysis by LC-MS. The mobile phase A is 100% water and mobile phase B is 0.1% Formic Acid in acetonitrile. Separation of meropenem was achieved on an Agilent SB-C18, 1.8 μm, 100×3 mm column. The flow rate was 250 μL/min at 35° C., and the gradient elution program was: 0-1 min, 5% MPB; 1-5 min, 5-50% MPB; 5-6 min, 50-95% MPB; 6-10 min, 95% MPB; 10-10.1 min, 95-5% MPB. The total run time was 15 min. The mass spectrometer was operated in the MRM positive ion electrospray mode with the transition m/z 384.1->68.0. […]

[2] = Meropenem concentration in stool during drinking water administration; type: in vivo; settings: 48 hours after starting meropenem treatment, normal SPF mice
Protocol: (§1) In a murine model with a mucin-deficient mutate strain of BT, piperacillin/tazobactam was given at a concentration of 3.2 g/L in combination with vancomycin and metronidazole dosed 1.5 mg daily by oral gavage from days −16 to −12 relative to transplant.
To further explore the relationship between meropenem and intestinal GvHD, the effects of meropenem on GvHD was examined in a mouse model of allo-HSCT. A method of administering meropenem to mice that mimicked the effects of meropenem on the intestinal microbiome of patients was developed. Meropenem concentrations in the cecal lumen of mice were quantified 4, 8, 24, 48 and 96 hours after subcutaneous injection. […] Drinking water was then evaluated as a means of continuously administering meropenem to mice, using bacterial density quantified by 16S ribosomal RNA (16S rRNA) gene quantitative PCR (qPCR) to gauge reductions of the intestinal microbiota.

[3] = test system: allogeneic mice (B6D2F1 recipients of B6 donor cells); test: Murine GvHD model (allo-HSCT): survival and GvHD histology; type: in vivo
Protocol: as §1
D-(+)-xylose (X3877, Sigma-Aldrich) or D-(+)-glucose (G8270, Sigma-Aldrich) was dissolved in phosphate buffer pH 8.0 with meropenem or in water without meropenem and given at a concentration of 0.5% from days 13 to 28 after allo-HSCT.
Mice were transplanted as previously described (Hayase et al., 2017).
Pathology scores were quantified by a blinded pathologist. […] Sections were imaged using an Aperio AT2.

intestinal microbiota = test: 16S rRNA sequencing of fecal and mucosal microbiome in mice; type: in vivo
Protocol: Fecal samples which were collected from patients and mice and colonic mucosal samples, which were collected from mice were weighed before DNA isolation. […] The quality and quantity of the barcoded amplicons were assessed on an Agilent 4200 TapeStation system (Agilent) and Qubit Fluorometer (Thermo Fisher Scientific), and libraries were prepared after pooling at equimolar ratios. The final libraries were purified using QIAquick gel extraction kit (28706X4, Qiagen) and sequenced with a 2×250 base pair paired-end protocol on the Illumina MiSeq platform.
For differential abundance analysis, abundances of sequences belonging to taxonomical groups were included for analysis using the Mann-Whitney U test and adjusted for multiple comparisons using the method of Benjamini-Hochberg. Paired samples were analyzed using the Wilcoxon signed rank test with adjustment for multiple comparisons.

## C[C@@H](O)[C@H]1C(=O)N2C(C(=O)O)=C(S[C@@H]3CN[C@H](C(=O)N(C)C)C3)[C@H](C)[C@H]12 [meropenem]
[1]
  meropenem concentrations in the cecal lumen: increase in meropenem concentrations in the cecum at 4 hours after injection, which rapidly declined afterwards
[2]
  meropenem concentration in stool: 0.11 ± 0.07 µg/g
[3]; meropenem days 3 to 15, day 18, vs control allogeneic mice
  GvHD histological scores in the colon: significantly higher GvHD histological scores in the colon
[3]; meropenem in drinking water days 3 to 15, vs control allogeneic mice
  overall survival: significantly worsened survival
Intestinal microbiota; allogeneic mice, day 21
  abundances of Bacteroides and several other genera: significantly higher abundances
Intestinal microbiota; meropenem-treated allogeneic mice, from day 7 until 6 days after stopping
  relative abundance of Clostridia: depleted; also recorded: significantly decreased
Intestinal microbiota; treated allogeneic mice, PERMANOVA testing
  compositional differences between luminal and mucosal samples: loss of this distinction
